Legend:
pancreatic islets = experiment: Glucose-stimulated insulin secretion (GSIS) of isolated islets; type: cell-based, C57BL/6J mice; settings: for Insulin Secretion: 16.7 mM glucose + 10 nM peptide, groups of 5 islets, 60 min incubation; for Insulin release compared with islets cultured without the addition of peptides: 16.7 mM glucose, 10 nM peptide, result in words
Protocol: The pancreases were procured from male adult C57BL/6J mice. After 7 days acclimation, the animals were sacrificed by cervical dislocation and the entire pancreas was removed and digested with collagenase to isolate islets. After digestion, islets were maintained at 37° C. in RPMI 1640 (Carlsbad Calif., USA) pH 7.4, containing 10% (v/v) fetal calf serum, 1% penicillin/streptomycin, and 10 mM glucose in a humid atmosphere (5% CO2/95% O2), without the addition of any compound (control), or with the addition of 10 nM glucagon like peptide-1 (GLP-1); or 10 nM INGAP-PP; or 10 nM Peptide 1, Peptide 2 or Peptide 3, as summarized in Table 5 below.
Cultured islets were rinsed in Krebs-Ringer bicarbonate buffer (KRB), pH 7.4, previously gassed with a mixture of CO2/O2 (5/95%), and pre-incubated in 1.0 mL of KRB containing 0.5% (w/v) BSA and 2.8 mM glucose at 37° C. for 45 min. After this period, groups of 5 islets were incubated in 0.6 mL KRB with the addition of 2.8 or 16.7 mM glucose, with or without the addition of peptides for 60 min. At the end of the incubation period, aliquots of the medium were collected for insulin quantitation.

[1] = tested on: STZ induced diabetic mice; experiment: Blood glucose in streptozotocin (STZ) induced diabetic mice model; type: in vivo, C57BL/6J mice; settings: 250 nM/kg, day 8 of treatment
Protocol: (§1) After acclimatization in the animal facility for one week, 6-8 weeks old C57BL/6J mice were administered high dose STZ at 150 mg/kg in citrate buffer to establish a T1D animal model. Mice with blood glucose greater than 16.7 mmol/L at 10 days post last STZ injection were included in the study. These mice were then treated with INGAP-PP or GLP-1 or Peptide 2 at the dose of 250 nM/kg for 10 days before sacrifices. One additional group of diabetic mice were administered with saline as model control groups. Blood glucose levels were measured on day 8. Ten days post the last dosing of test agents, an oral glucose tolerance test (OGTT) was performed in 6 hours fasted animals. Blood samples obtained from the tail for glucose determination were detected with an ACCU-CHEK™ glucometer (Roche, ACCU-CHEK® Performa)
(§2) The blood glucose (BG, mM) present were measured on day 8 of treatment. The area under curve (AUC) of glucose (T0˜120 min) measured in an oral glucose tolerance test (OGTT) on day 10 of treatment.

[2] = tested on: STZ induced diabetic mice; experiment: Oral glucose tolerance test (OGTT) in STZ induced diabetic mice model; type: in vivo, C57BL/6J mice; settings: 250 nM/kg, glucose AUC T0~120 min, day 10 of treatment, 6 hours fasted
Protocol: as §1, §2

Substance | Insulin Secretion (pancreatic islets) [ng/islet/hour] | Insulin release compared with islets cultured without the addition of peptides (pancreatic islets) | Blood Glucose (Day 8) [1] [mM] | AUC of OGTT (Day 10) [2]
H-IGLHDPSHGTLPNGS-OH (also: D-Isoleucine at 1) [INGAP-PP] | 2.5 ± 1.0 | no stimulation | 25.9 ± 9.1 | 3207.6 ± 801.5
glucagon like peptide-1 [GLP-1] | 5.4 ± 2.1 | significantly more insulin | 22.1 ± 6.8 | 3054.7 ± 728.9

From US10829527B2, “Conjugates of islet neogenesis peptides and analogs, and methods thereof” (SHENZHEN HIGHTIDE BIOPHARMACEUTICAL, LTD., priority 2016, dated 2020)
